This is an account of results in patent publication US20030004172A1, “Fused pyrimidinone matrix metalloproteinase inhibitors” (priority 2001, published 2003).

The target of the assay is MMP-13CD (catalytic domain of collagenase-3) (Homo sapiens, UniProt P45452). In words: Thiopeptolide substrate hydrolysis inhibition assay, MMP-13CD. The assay is classed as biochemical. Conditions: Table I; thiopeptolide substrate, HEPES pH 7.0, 22° C.; read-out: MMP-13CD IC50. An excerpt: Thiopeptolide substrates show virtually no decomposition or hydrolysis at or below neutral pH in the absence of a matrix metalloproteinase enzyme.

For the compound `CC(CO)Cn1c(=O)c2cc(C(=O)OCc3ccccc3)sc2n(C)c1=O` (centres unmarked) [Example 134, 3-(3-Hydroxy-2-methyl-propyl)-1-methyl-2,4-dioxo-1,2,3,4-tetrahydro-thieno[2,3-d]pyrimidine-6-carboxylic acid benzyl ester], the IC50 amounted to 1500 nM.
On to `Cn1c(=O)n(Cc2cccnc2)c(=O)c2cc(C(=O)OCc3ccccc3)sc21` [Example 125, 1-Methyl-2,4-dioxo-3-pyridin-3-ylmethyl-1,2,3,4-tetrahydro-thieno[2,3-d]pyrimidine-6-carboxylic acid benzyl ester], for which the IC50 turned out to be 90 nM.
Then `Cn1c(=O)n(Cc2ccc(S(C)(=O)=O)cc2)c(=O)c2cc(C(=O)OCc3ccccc3)sc21` [Example 101, 3-(4-Methanesulfonyl-benzyl)-1-methyl-2,4-dioxo-1,2,3,4-tetrahydro-thieno[2,3-d]pyrimidine-6-carboxylic acid benzyl ester], with 34 nM.
For `Cn1c(=O)n(Cc2ccc(S(C)(=O)=O)cc2)c(=O)c2cc(C(=O)OCc3ccccc3)sc21` [Example 102, 3-(4-Methanesulfonyl-benzyl)-1-methyl-2,4-dioxo-1,2,3,4-tetrahydro-thieno[2,3-d]pyrimidine-6-carboxylic acid benzyl ester] the value was 34 nM.
Take `CCC(C)n1c(=O)c2cc(C(=O)NCc3cccc(OC)c3)sc2n(C)c1=O` (centres unmarked) [Example 288]: the IC50 turned out to be 4200 nM.
Turning to `Cn1c(=O)n(Cc2ccccc2)c(=O)c2cc(C(=O)NCc3ccc(Cl)c(Cl)c3)sc21` [Example 359, 3-Benzyl-1-methyl-2,4-dioxo-1,2,3,4-tetrahydro-thieno[2,3-d]pyrimidine-6-carboxylic acid 3,4-dichloro-benzylamide], the IC50 turned out to be 1000 nM.
Then `CC/C=C/Cn1c(=O)c2cc(C(=O)NCc3cccc(OC)c3)sc2n(C)c1=O` [Example 286], with 270 nM; and `Cn1c(=O)n(Cc2ccc(C(=O)OC(C)(C)C)cc2)c(=O)c2cc(C(=O)NCc3cccc(OC(F)F)c3)sc21` [Example 78, 4-[6-(3-Difluoromethoxy-benzylcarbamoyl)-1-methyl-2,4-dioxo-1,4-dihydro-2H-thieno[2,3-d]pyrimidin-3-ylmethyl]-benzoic acid tert-butyl ester], with 900 nM.
Turning to `Cc1ccc(CNC(=O)c2cc3c(=O)n(Cc4ccccc4)c(=O)n(C)c3s2)o1` [Example 346, 3-Benzyl-1-methyl-2,4-dioxo-1,2,3,4-tetrahydro-thieno[2,3-d]pyrimidine-6-carboxylic acid (5-methyl-furan-2-ylmethyl)-amide], the IC50 turned out to be 9900 nM.
For `CC#CCn1c(=O)c2cc(C(=O)OCc3ccccc3)sc2n(C)c1=O` [Example 131, 3-But-2-ynyl-1-methyl-2,4-dioxo-1,2,3,4-tetrahydro-thieno[2,3-d]pyrimidine-6-carboxylic acid benzyl ester] the value was 19 nM; for `Cn1c(=O)n(Cc2ccccc2)c(=O)c2cc(C(=O)OC3CCCc4ccccc43)sc21` (centres unmarked) [Example 198, 3-Benzyl-1-methyl-2,4-dioxo-1,2,3,4-tetrahydro-thieno[2,3-d]pyrimidine-6-carboxylic acid 1,2,3,4-tetrahydro-naphthalen-1-yl ester], more than 100000 nM; for `Cn1c(=O)n(Cc2ccc(C(F)(F)F)cc2C(F)(F)F)c(=O)c2cc(C(=O)OCc3ccccc3)sc21` [Example 111, 3-(2,4-Bis-trifluoromethyl-benzyl)-1-methyl-2,4-dioxo-1.2.3.4-tetrahydro-thieno[2,3-d]pyrimidine-6-carboxylic acid benzyl ester], 3200 nM.
Consider `COc1cccc(CNC(=O)c2cc3c(=O)n(Cc4ccc([N+](=O)[O-])nc4)c(=O)n(C)c3s2)c1` [Example 368, 1-Methyl-3-(6-nitro-pyridin-3-ylmethyl)-2,4-dioxo-1,2,3,4-tetrahydro-thieno[2,3-d]pyrimidine-6-carboxylic acid 3-methoxy-benzylamide], for which the IC50 is 735 nM.
For the compound `COc1cccc(CNC(=O)c2cc3c(=O)n(CC=C(C)C)c(=O)n(C)c3s2)c1` [Example 292], the IC50 was 10000 nM.
For the compound `COc1cccc(CNC(=O)c2cc3c(=O)n(Cc4ccccc4)c(=O)n(C)c3s2)c1` [Example 343, 3-Benzyl-1-methyl-2,4-dioxo-1,2,3,4-tetrahydro-thieno[2,3-d]pyrimidine-6-carboxylic acid 3-methoxy-benzylamide], the IC50 is 44 nM.
For `CCC(C)n1c(=O)c2cc(C(=O)NCc3ccc(OC)cc3)sc2n(C)c1=O` (centres unmarked) [Example 262] the value was 3400 nM.
For `Cn1c(=O)n(Cc2ccccc2)c(=O)c2cc(C(=O)OCc3ccc([N+](=O)[O-])cc3)sc21` [Example 179, 3-Benzyl-1-methyl-2,4-dioxo-1,2,3,4-tetrahydro-thieno[2,3-d]pyrimidine-6-carboxylic acid 4-nitro-benzyl ester] the value was 250 nM; for `Cn1c(=O)n(Cc2ccccc2)c(=O)c2cc(C(=O)OCCOc3ccccc3)sc21` [Example 146, 3-Benzyl-1-methyl-2,4-dioxo-1,2,3,4-tetrahydro-thieno[2,3-d]pyrimidine-6-carboxylic acid 2-phenoxyethyl ester], 47000 nM; for `CCOC(=O)c1ccc(Cn2c(=O)c3cc(C(=O)NCc4cccc(OC)c4)sc3n(C)c2=O)o1` [Example 65a, 5-[6-(3-Methoxy-benzylcarbamoyl)-1-methyl-2,4-dioxo-1,4-dihydro-2H-thieno[2,3-d]pyrimidin-3-ylmethyl]-furan-2-carboxylic acid ethyl ester], 1050 nM.
For `O=C(OCc1ccccc1)c1cc2c(=O)n(Cc3ccccc3)c(=O)n(CC3CC3)c2s1` [Example 74, 3-Benzyl-1-cyclopropylmethyl-2,4-dioxo-1,2,3,4-tetrahydro-thieno[2,3-d]pyrimidine-6-carboxylic acid benzyl ester], the IC50 is 71500 nM.
Consider `Cn1c(=O)n(Cc2ccccc2)c(=O)c2cc(C(=O)OC3CCOC3)sc21` (centres unmarked) [Example 191, 3-Benzyl-1-methyl-2,4-dioxo-1,2,3,4-tetrahydro-thieno[2,3-d]pyrimidine-6-carboxylic acid tetrahydro-furan-3-yl ester], for which the half-inhibitory concentration (IC50) was 2300 nM.
In the case of `Cn1c(=O)n(Cc2ccc(C(F)(F)F)cc2)c(=O)c2cc(C(=O)OCc3ccccc3)sc21` [Example 106, 1-Methyl-2,4-dioxo-3-(4-trifluoromethyl-benzyl)-1,2,3,4-tetrahydro-thieno[2,3-d]pyrimidine-6-carboxylic acid benzyl ester], the IC50 came to 590 nM.
Consider `COc1cccc(CNC(=O)c2cc3c(=O)n(CCSc4ccc(Cl)cc4)c(=O)n(C)c3s2)c1` [Example 278], for which the 50% inhibitory concentration (IC50) is 7600 nM.
For the compound `Cn1c(=O)n(Cc2cccc3ccccc23)c(=O)c2cc(C(=O)OCc3ccccc3)sc21` [Example 138, 1-Methyl-3-naphthalen-1-ylmethyl-2,4-dioxo-1,2,3,4-tetrahydro-thieno[2,3-d]pyrimidine-6-carboxylic acid benzyl ester], the IC50 came out at 660 nM.
Turning to `COc1ccc(COC(=O)c2cc3c(=O)n(Cc4ccccc4)c(=O)n(C)c3s2)cc1` [Example 166, 3-Benzyl-1-methyl-2,4-dioxo-1,2,3,4-tetrahydro-thieno[2,3-d]pyrimidine-6-carboxylic acid 4-methoxy-benzyl ester], the IC50 stood at 920 nM.
In the case of `Cn1c(=O)n(Cc2ccccc2C#N)c(=O)c2cc(C(=O)OCc3ccccc3)sc21` [Example 122, 3-(2-Cyano-benzyl)-1-methyl-2,4-dioxo-1,2,3,4-tetrahydro-thieno[2,3-d]pyrimidine-6-carboxylic acid benzyl ester], the IC50 came out at 4500 nM.
Regarding `COc1ccc(CNC(=O)c2cc3c(=O)n(CCS(=O)(=O)c4ccc(F)cc4)c(=O)n(C)c3s2)cc1` [Example 268], the IC50 was determined as 3600 nM.
`COc1ccc(CNC(=O)c2cc3c(=O)n(CCCCCC#N)c(=O)n(C)c3s2)cc1` [Example 257]: the IC50 was 1500 nM.
For `Cn1c(=O)n(Cc2cccc(I)c2)c(=O)c2cc(C(=O)OCc3ccccc3)sc21` [Example 109, 3-(3-Iodo-benzyl)-1-methyl-2,4-dioxo-1,2,3,4-tetrahydro-thieno[2,3-d]pyrimidine-6-carboxylic acid benzyl ester], the IC50 is 940 nM.
Regarding `Cn1c(=O)n(Cc2ccccc2)c(=O)c2cc(C(=O)OCc3cccc(Cl)c3)sc21` [Example 200, 3-Benzyl-1-methyl-2,4-dioxo-1,2,3,4-tetrahydro-thieno[2,3-d]pyrimidine-6-carboxylic acid 3-chloro-benzyl ester], the IC50 was determined as 67 nM.
For the compound `COc1ccc(CNC(=O)c2cc3c(=O)n(Cc4ccc(-c5noc(=O)[nH]5)cc4)c(=O)n(C)c3s2)cc1` [Example 221, 1-Methyl-2,4-dioxo-3-[4-(5-oxo-4,5-dihydro-1,2,4-oxadiazol-3-yl)-benzyl]-1,2,3,4-tetrahydro-thieno[2,3-d]pyrimidine-6-carboxylic acid 4-methoxy-benzylamide], the IC50 was 4.6 nM.
With `Cn1c(=O)n(Cc2nc(N)nc(Nc3ccccc3)n2)c(=O)c2cc(C(=O)OCc3ccccc3)sc21` [Example 105, 3(4-Amino-6-phenylamino-1,3,5-triazin-2-ylmethyl)-1-methyl-2,4-dioxo-1,2,4-tetrahydro-thieno[2,3-d]pyrimidine-6-carboxylic acid benzyl ester], the IC50 is 520 nM.
As for `CN1CCC(OC(=O)c2cc3c(=O)n(Cc4ccccc4)c(=O)n(C)c3s2)CC1` [Example 161, 3-Benzyl-1-methyl-2,4-dioxo-1,2,3,4-tetrahydro-thieno[2,3-d]pyrimidine-6-carboxylic acid 1-methyl-piperidin-4-yl ester], the IC50 amounted to 11000 nM.
Turning to `C=C(C)Cn1c(=O)c2cc(C(=O)NCc3ccc(OC)cc3)sc2n(C)c1=O` [Example 263], the IC50 was found to be 2150 nM.
Turning to `COc1cccc(CNC(=O)c2cc3c(=O)n(CCOc4ccc(Cl)cc4)c(=O)n(C)c3s2)c1` [Example 237, 3-[2-(4-chloro-phenoxy)-ethyl]-1-methyl-2,4-dioxo-1,2,3,4-tetrahydro-thieno[2,3-d]pyrimidine-6-carboxylic acid 3-methoxy-benzylamide], the IC50 turned out to be 92.5 nM.
